Patent publication EP0097071A1, “Benzhydryl sulfinylacetamide derivatives and their therapeutical use” (LABORATOIRE L. LAFON Société anonyme dite:, priority 1982, dated 1983)
Where two headings read alike, the source gives them in different places.

Experiments:
[1] = system: SNC; assay: Essential activity on the CNS (Tableau I and conclusions of the neuropsychopharmacological study); format: in vivo
Excerpt: Dans le tableau I ci-après, on a consigné un certain nombre de composés selon la formule I de façon nullement limitative, en mentionnant l'activité essentielle sur le SNC.
Les composés de formule I agissent tous sur le SNC. Les produits des exemples 1-3 et 7-8 sont des agents stimulants, en revanche les produits des exemples 4-6 sont des agents sédatifs.

[2] = system: souris mâle; assay: Pentobarbital-induced sleep duration; format: in vivo; conditions: dose 8 mg/kg i.p., 0,5 h before pentobarbital
Excerpt: Les composés selon l'invention se distinguent du benzhydrylsulfinylacétamide (CRL 40476) précité par une différence d'action vis-à-vis du sommeil barbiturique. […]. Cette différence d'action qui est intéressante sur le plan thérapeutique est illustrée par le tableau IV

[3] = system: souris mâle; assay: Toxicity, DL-0; format: in vivo; conditions: i.p.
Protocol: (§1) On a résumé ci-après les résultats des essais pharmacologiques qui ont été entrepris avec les produits selon la présente addition. Dans ces essais, les produits de formule I à étudier ont été administrés par voie intrapéritonéale, en suspension dans une solution aqueuse de gomme arabique, sous un volume de 20 ml/kg chez la souris mâle et sous un volume de 5 ml/kg chez le rat mâle.
La toxicité a été étudiée chez la souris mâle. Les résultats relatifs à la DL-0 (dose minimale non mortelle) sont donnés dans le tableau II ci-après.

[4] = Global behaviour and reactivities, mouse; format: in vivo, souris; conditions: mouse, in vivo, ip, souris, 24 h après administration, read-out: mortalité tardive
Protocol: as §1
(§2) Pour apprécier le comportement global et les réactivités, des lots de six animaux (souris mâles ou rats mâles) ont été observés avant administration de chaque produit, puis 15 min, 30 min, 1 h, 2 h, 3 h et 24 h après administration de chaque produit. Les résultats sont consignés dans le tableau III ci-après, […]

[5] = system: souris mâles; assay: Global behaviour and reactivities, mouse; format: in vivo; conditions: souris
Protocol: as §1, §2

[6] = system: rats mâles; assay: Global behaviour and reactivities, rat; format: in vivo
Protocol: as §1, §2

[7] = system: souris; assay: Interaction with apomorphine, mouse; format: in vivo
Protocol: as §1
Des lots de 6 souris par dose reçoivent le CRL 40933 0,5 h avant l'injection sous-cutanée d'apomorphine administrée à la dose de 1 ou 16 mg/kg.

[8] = system: rat; assay: Interaction with apomorphine, rat; format: in vivo; conditions: apomorphine 0,5 mg/kg s.c., dose not stated
Protocol: as §1
Le CRL 40933 est administré à des lots de 6 rats 0,5 h avant l'injection sous-cutanée de 0,5 mg/kg d'apomorphine.

[9] = system: rats; assay: Interaction with amphetamine (stereotypies); format: in vivo; conditions: rat; amphétamine 2 mg/kg i.p.; doses used, not stated
Protocol: as §1
L'amphétamine (2 mg/kg)est injectée par voie intrapéritonéale à des lots de 6 rats, 30 min après l'administration de CRL 40933.

[10] = system: souris; assay: Interaction with reserpine; format: in vivo; conditions: 32 mg/kg et 12'8 mg/kg i.p.
Protocol: as §1
Quatre heures après l'injection intrapéritonéale de 2,5 mg/kg de réserpine, des lots de 6 souris reçoivent le CRL 40933.

[11] = system: souris; assay: Interaction with oxotremorine; format: in vivo
Protocol: as §1
Le CRL 40933 est administré à des lots de 6 souris 0,5 h avant l'injection intrapéritonéale de 0,5 mg/kg d'oxotrémorine.

[12] = system: souris; assay: Four plates test; format: in vivo; conditions: 0,5 h after administration, dose not stated
Protocol: as §1
(§3) Les essais sont effectués sur des lots de 10 souris (par dose) 0,5 h après l'administration du CRL 40933.

[13] = system: souris; assay: Traction test; format: in vivo; conditions: 0,5 h after administration, dose not stated
Protocol: as §1, §3

[14] = system: souris; assay: Electroshock; format: in vivo; conditions: 32 mg/kg à 128 mg/kg i.p.
Protocol: as §1, §3

[15] = system: souris; assay: Spontaneous motility (actimeter); format: in vivo
Protocol: as §1
Une demi-heure, après avoir reçu le CRL 40933, les souris (6 par dose, 12 témoins) sont placées en actimètre où leur motilité est enregistrée pendant 30 min.

[16] = system: souris; assay: Intergroup aggressiveness; format: in vivo; conditions: dose not stated
Protocol: as §1
Après avoir séjourné pendant 3 semaines dans chacune des moitiés d'une cage séparées par une cloison opaque, des groupes de 3 souris reçoivent le CRL 40933. 30 min plus tard, les deux groupes d'une même cage sont réunis par retrait de la cloison et on note le nombre de combats qui surviennent en 10 min.

[17] = system: souris; assay: Motility reduced by habituation to the enclosure; format: in vivo
Protocol: as §1
Après 18 h de séjour dans les actimètres, les souris (6 par dose, 12 témoins) reçoivent le CRL 40933. Elles sont aussitôt replacées dans leurs enceintes respectives et, 30 min plus tard, on enregistre leur motilité pendant 30 min.

[18] = system: souris; assay: Motility reduced by hypoxic aggression (acute hypobaric anoxia); format: in vivo; conditions: 128 mg/kg i.p.
Protocol: as §1
Une demi-heure après avoir reçu le CRL 40933, les souris (10 par dose, 20 témoins) sont soumises à une anoxie hypobare aiguë [dépression de 600 mm Hg (soit environ 8 x 10^4 pascals) en 90 s, puis détente de 45 s], puis elles sont placées en actimètre où leur motilité est enregistrée pendant 10 min.

[19] = system: souris; assay: Asphyxic anoxia (gallamine triethiodide); format: in vivo; conditions: 128 mg/kg i.p., 30 min before triiodoéthylate de gallamine 32 mg/kg i.p.
Protocol: as §1
Des lots de 10 souris par dose reçoivent le CRL 40933 30 min avant l'administration intrapéritonéale de 32 mg/kg de triiodoéthylate de gallamine.

[20] = system: souris; assay: Interaction with barbital (sleep); format: in vivo; conditions: dès la dose de 8 mg/kg i.p., barbital 220 mg/kg i.p.
Protocol: as §1
Une demi-heure après l'administration de CRL 40933, des lots de 10 souris reçoivent une injection intrapéritonéale de 220 mg/kg de barbital.

[21] = system: souris; assay: Behavioural despair (forced immersion); format: in vivo; conditions: souris; 8 mg/kg, 32 mg/kg, mais surtout 128 mg/kg i.p.
Protocol: as §1
Une demi-heure après avoir reçu le CRL 40933, des lots de 10 souris par dose sont placés dans un espace restreint rempli d'eau sur une hauteur de 6 cm; on note la durée d'immobilité entre la 2e et la 6e minute suivant l'immersion.

[22] = system: homme; assay: Clinical trials; format: in vivo
Excerpt: Les études cliniques ont porté sur les troubles de la vigilance, de l'éveil et des états confusionnels, d'une part, et sur les troubles de l'affectivité, du contact et des dépressions, d'autre part.

SMILES: NC(=O)C[S+]([O-])C(c1ccccc1)c1ccc(Cl)cc1 (stereo not shown) [Exemple 7, 4-chlorobenzhydrylsulfinylacétamide]
- Activité sur le SNC ([1]; in vivo): stimulant
- conclusion of the neuropsychopharmacological study: main type of CNS effect ([1]; in vivo): effets de type stimulant
- conclusion: effets de type antidépresseur ([1]; in vivo): effets de type antidépresseur qui sont faibles
- conclusion: effets anticonvulsivants ([1]; souris mâle): effets anticonvulsivants
- Action sur la durée du sommeil induit par le pentobarbital (50 mg/kg i.p.) effet [2]: (a)
- DL-O [3]: supérieure à 256 mg/kg
- mortality at 24 h ([4]; 512 mg/kg i.p.): 33%
- mortality at 24 h ([4]; 1024 mg/kg i.p.): 66%
- Observations (comportement global et réactivités) ([5]; 512 mg/kg i.p.): crampes abdominales, sédation et hypo-réactivité au toucher
- Observations (comportement global et réactivités) ([5]; 1024 mg/kg i.p.): crampes abdominales, sédation et hypo-réactivité au toucher, respiration dépri-mée
- Observations (comportement global et réactivités) ([5]; 128 mg/kg i.p.): excitation apparaissant 1,5 h après administration et durant 3 h - réactivité au toucher
- Observations (comportement global et réactivités) ([5]; 256 mg/kg i.p.): crampes abdominales, respiration déprimée, puis - excitation apparaissant 1,5 h après administration
- Observations (comportement global et réactivités) ([6]; 16 mg/kg i.p.): mydriase 1 h après administration
- Observations (comportement global et réactivités) ([6]; 64 mg/kg i.p.): hypotonie musculaire pendant 3 h - respiration déprimée pendant 3 h - mydriase pendant 2 à 3 h
- comportement de verticalisation et stéréotypies (apomorphine) ([7]; 128 mg/kg i.p.): sans modifier
- action hypothermisante de l'apomorphine ([7]; 128 mg/kg i.p. 0,5 h before apomorphine 16 mg/kg s.c.): s'oppose
- stéréotypies induites par l'apomorphine [8]: ne modifie pas
- stéréotypies amphétaminiques [9]: ne modifie pas sensiblement
- ptôsis réserpinique [10]: sans modifier
- hypothermie réserpinique ([10]; 4 h after réserpine 2,5 mg/kg i.p.): s'oppose très faiblement
- effet hypothermisant de l'oxotrémorine ([11]; 128 mg/kg i.p., 0,5 h before oxotrémorine 0,5 mg/kg i.p.): s'oppose faiblement
- signes de stimulation cholinergique périphérique dus à l'oxotrémorine ([11]; dose not stated): ne modifie pas
- tremblements induits par l'oxotrémorine ([11]; dose not stated): ne sont pas influencés
- nombre de passages punis [12]: n'entraine pas d'augmentation nette
- déficit moteur (traction) [13]: ne provoque pas de déficit moteur majeur
- effets convulsivants de l'électrochoc [14]: s'oppose
- motilité spontanée ([15]; 2 mg/kg i.p. (lowest dose used)): diminution de motilité
- motilité spontanée ([15]; 32 mg/kg et 128 mg/kg i.p.): augmentation nette
- agressivité intergroupes (nombre de combats) [16]: ne modifie pas nettement
- reprise de l'activité chez la souris habituée à son enceinte ([17]; 2 mg/kg et 8 mg/kg i.p.): à peine perceptible
- reprise de l'activité chez la souris habituée à son enceinte ([17]; 32 mg/kg à 128 mg/kg i.p.): net
- récupération motrice après séjour bref dans une enceinte à pression réduite [18]: amélioration nette
- délai d'apparition des convulsions et de la mort consécutives à une anoxie asphyxique [19]: diminue
- durée du sommeil induit par le barbital [20]: diminue
- durée d'immobilité [21]: diminue
- action contre l'énurésie [22]: agissent efficacement
- résultats en tant que médicaments de l'éveil ([22]; notamment vieillard, gélules ou comprimés de 100 à 200 mg, 1 à 3 par jour): excellents résultats
